In US12552772B2, “2-pyrazole anilines and related analogs for inhibiting YAP/TAZ-TEAD” (KATHOLIEKE UNIVERSITEIT LEUVEN, priority 2021, dated 2026):

Test system: YAP/TAZ-TEAD transcription
Assay: Reporter gene assay for measuring the inhibition of YAP/TAZ-TEAD transcription (TEAD-responsive element luciferase reporter in Hek293T cells)
Assay type: cell-based
Conditions: Homo sapiens, HEK-293T, 24 hours incubation
Outline: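 Hek293T cells transiently transfected with a TEAD-responsive element luciferase reporter were plated onto compounds and incubated 24 h at 37 °C/5% CO2. SteadyLite luminescence gave percent inhibition, normalised to vehicle (0%) and positive control inhibitor (100%); EC50 derived.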

Compound	EC50 [nM]
C=CC(=O)NCc1cnc(-c2ccc(F)cc2)cc1-n1ccc(C2CC2)n1 [compound 247, N-((4-(3-cyclopropyl-1H-pyrazol-1-yl)-6-(4-fluorophenyl)pyridin-3-yl)methyl)acrylamide]	< 1000
O=S1(=O)CCC(Nc2cc(-c3ccccc3)cc(-c3ccn(Cc4cccnc4)n3)c2)CC1 [compound 069, 4-((5-(1-(pyridin-3-ylmethyl)-1H-pyrazol-3-yl)-[1,1′-biphenyl]-3-yl)amino)tetrahydro-2H-thiopyran 1,1-dioxide]	1000 to 20000
CCC(=O)NCc1cnc(-c2cccc(F)c2)cc1-c1ccn(C(F)F)n1 [compound 212, N-((4-(1-(difluoromethyl)-1H-pyrazol-3-yl)-6-(3-fluorophenyl)pyridin-3-yl)methyl)propionamide]	1000 to 20000
CNS(=O)(=O)CCNc1ccc(-c2cnn(C)c2)cc1-c1ccn(Cc2cccnc2)n1 [compound 108, N-methyl-2-((4-(1-methyl-1H-pyrazol-4-yl)-2-(1-(pyridin-3-ylmethyl)-1H-pyrazol-3-yl)phenyl)amino)ethane-1-sulfonamide]	1000 to 20000
C=CC(=O)NCc1ccc(-c2ccc(F)cc2)cc1-c1cnn(C(F)F)n1 [compound 186, N-((3-(2-(difluoromethyl)-2H-1,2,3-triazol-4-yl)-4′-fluoro-[1,1′-biphenyl]-4-yl)methyl)acrylamide]	< 1000
NC(=O)c1ccc(Cn2ccc(-c3cccc(-c4ccccc4)c3)n2)cn1 [compound 028, 5-((3-([1,1′-biphenyl]-3-yl)-1H-pyrazol-1-yl)methyl)picolinamide]	1000 to 20000
CNS(=O)(=O)CCNc1ccc(-c2ccccn2)cc1-c1ccn(Cc2cccnc2)n1 [compound 114, N-methyl-2-((4-(pyridin-2-yl)-2-(1-(pyridin-3-ylmethyl)-1H-pyrazol-3-yl)phenyl)amino)ethane-1-sulfonamide]	1000 to 20000
C=CC(=O)NCc1cnc(-c2ccc(F)cc2)cc1-c1cnn(C(F)F)c1 [Cpd. No. 224, N-((4-(1-(difluoromethyl)-1H-pyrazol-4-yl)-6-(4-fluorophenyl)pyridin-3-yl)methyl)acrylamide]	1000 to 20000
C=CC(=O)N1CCC(c2cc(-c3ccc(F)cc3)cc(-c3ccn(C(F)F)n3)n2)C1 (stereo not drawn) [Cpd. No. 265, 1-(3-(6-(1-(difluoromethyl)-1H-pyrazol-3-yl)-4-(4-fluorophenyl)pyridin-2-yl)pyrrolidin-1-yl)prop-2-en-1-one]	< 1000
N#Cc1cncc(-c2cccc(-c3ccn(Cc4ccccc4)n3)c2)c1 [compound 005, 5-(3-(1-benzyl-1H-pyrazol-3-yl)phenyl)nicotinonitrile]	1000 to 20000
CNS(=O)(=O)N1CCC(c2cnc(-c3ccc(F)cc3)cc2-c2ccn(C(F)F)n2)C1 (stereo not drawn) [compound 263, 3-(4-(1-(difluoromethyl)-1H-pyrazol-3-yl)-6-(4-fluorophenyl)pyridin-3-yl)-N-methylpyrrolidine-1-sulfonamide]	> 20000
O=C(O)c1cncc(-c2cccc(-c3ccn(Cc4ccccc4)n3)c2)c1 [compound 001, 5-(3-(1-benzyl-1H-pyrazol-3-yl)phenyl)nicotinic acid]	> 20000
C=CC(=O)NC1(c2ccc(-c3ccc(F)cc3)cc2-c2ccn(C)n2)CC1 [Cpd. No. 256, N-(1-(4′-fluoro-3-(1-methyl-1H-pyrazol-3-yl)-[1,1′-biphenyl]-4-yl)cyclopropyl)acrylamide]	< 1000
CNS(=O)(=O)CCNc1ccc(-c2cccc(C(F)(F)F)c2)cc1-c1ccn(Cc2cccnc2)n1 [compound 089]	< 1000
CCC(=O)N1CCC(c2ccc(-c3ccc(F)cc3)cc2-c2ccn(C)n2)C1 (stereo not drawn) [compound 259, 1-(3-(4′-fluoro-3-(1-methyl-1H-pyrazol-3-yl)-[1,1′-biphenyl]-4-yl)pyrrolidin-1-yl)propan-1-one]	1000 to 20000
C=CC(=O)NCc1ccc(-c2ccc(F)cc2)cc1-c1ccn(C2(C)CC2)n1 [compound 175, N-((4′-fluoro-3-(1-(1-methylcyclopropyl)-1H-pyrazol-3-yl)-[1,1′-biphenyl]-4-yl)methyl)acrylamide]	< 1000
N#Cc1ccc(Cn2ccc(-c3cccc(-c4ccccc4)c3)n2)cn1 [compound 027, 5-((3-([1,1′-biphenyl]-3-yl)-1H-pyrazol-1-yl)methyl)picolinonitrile]	1000 to 20000
c1ccc(Nc2cccc(-c3ccn(Cc4cccnc4)n3)c2)cc1 [compound 045, N-phenyl-3-(1-(pyridin-3-ylmethyl)-1H-pyrazol-3-yl)aniline]	1000 to 20000
NC(=O)c1cncc(-c2cccc(-c3ccn(Cc4ccccc4)n3)c2)c1 [compound 002, 5-(3-(1-benzyl-1H-pyrazol-3-yl)phenyl)nicotinamide]	< 1000
CNS(=O)(=O)CCNc1ccc(-c2ccccc2)cc1-c1ccn(Cc2cccc(C(N)=O)c2)n1 [compound 113, 3-((3-(4-((2-(N-methylsulfamoyl)ethyl)amino)-[1,1′-biphenyl]-3-yl)-1H-pyrazol-1-yl)methyl)benzamide]	< 1000
CNc1cc(Cn2ccc(-c3cccc(-c4ccccc4)c3)n2)ccn1 [compound 036, 4-((3-([1,1′-biphenyl]-3-yl)-1H-pyrazol-1-yl)methyl)-N-methylpyridin-2-amine]	1000 to 20000
C=CC(=O)Nc1cncc(-c2cccc(-c3ccn(Cc4cccc(C(F)(F)F)c4)n3)c2)c1 [compound 012, N-(5-(3-(1-(3-(trifluoromethyl)benzyl)-1H-pyrazol-3-yl)phenyl)pyridin-3-yl)acrylamide]	1000 to 20000
NCc1ccc(Cn2ccc(-c3cccc(-c4ccccc4)c3)n2)cn1 [compound 029, (5-((3-([1,1′-biphenyl]-3-yl)-1H-pyrazol-1-yl)methyl)pyridin-2-yl)methanamine]	1000 to 20000
C=CC(=O)NCc1ccc(-c2ccc(F)cc2)cc1-c1cccnc1 [compound 164, N-((4′-fluoro-3-(pyridin-3-yl)-[1,1′-biphenyl]-4-yl)methyl)acrylamide]	< 1000
Cn1ccc(-c2cn(-c3ccc(F)cc3)c(=O)cc2CNS(C)(=O)=O)n1 [compound 237, N-((1-(4-fluorophenyl)-5-(1-methyl-1H-pyrazol-3-yl)-2-oxo-1,2-dihydropyridin-4-yl)methyl)methanesulfonamide]	> 20000
C=Cc1ccc(Cn2ccc(-c3cccc(-c4ccccc4)c3)n2)cn1 [compound 033, 5-((3-([1,1′-biphenyl]-3-yl)-1H-pyrazol-1-yl)methyl)-2-vinylpyridine]	1000 to 20000
c1ccc(-c2cccc(-c3ccn(CC4CCOCC4)n3)c2)cc1 [compound 026, 3-([1,1′-biphenyl]-3-yl)-1-((tetrahydro-2H-pyran-4-yl)methyl)-1H-pyrazole]	> 20000
C=CC(=O)NCc1c(-c2ccn(C)n2)cc(-c2ccc(F)cc2)[nH]c1=O [Cpd. No. 233, N-((6-(4-fluorophenyl)-4-(1-methyl-1H-pyrazol-3-yl)-2-oxo-1,2-dihydropyridin-3-yl)methyl)acrylamide]	> 20000
N#CCNc1ccc(-c2ccccc2)cc1-c1ccn(Cc2cccnc2)n1 [compound 085, 2-((3-(1-(pyridin-3-ylmethyl)-1H-pyrazol-3-yl)-[1,1′-biphenyl]-4-yl)amino)acetonitrile]	< 1000
Nc1ccc(Cn2ccc(-c3cccc(-c4ccccc4)c3)n2)cn1 [compound 034, 5-((3-([1,1′-biphenyl]-3-yl)-1H-pyrazol-1-yl)methyl)pyridin-2-amine]	> 20000
